The subject of data set [1] is Trypanosoma brucei rhodesiense, T. cruzi, Plasmodium falciparum and Leishmania donovani axenic and the infected macrophages amastigotes. Also on record: method as in PMID 17922552. The following applies: cited from earlier work; for IC50: T. b. rhodesiense, T. cruzi, P. falciparum, L. donovani axenic and infected-macrophage amastigotes, read-out: IC50 on protozoan panel.

The subject of data set [2] is Trypanosoma brucei brucei (bloodstream forms). Put plainly: Antitrypanosomal activity in vitro. The data set is classed as cell-based. The procedure: (§1) The crude extract and the newly identified pure compound (91.9%), campestrolide, were evaluated in vitro for their cytotoxicity on two mammalian cell lines: normal human fibroblasts (WI38) and cancerous macrophage-like murine cells. Their antiprotozoal activities were also investigated on Trypanosoma brucei brucei (Tbb. strain 427) bloodstream forms and Leishmania mexicana mexicana (Lmm. MHOM/BZ/84/BEL46) promastigotes. The tests were performed using stock solutions prepared in DMSO at 10 mg/mL. For the cytotoxicity assay, the samples were tested in eight serial 1.7-fold dilutions (150 µL transferred into 100 µL fresh medium) in the 96-well microtiter plates (concentration range: 0.7–25 µg/mL). The camptothecin (Sigma-Aldrich, St.-Louis, MO, USA) was used as a positive control with 5-fold dilutions (concentration range: 0.00032–25 µg/mL) from a 10 mg/mL DMSO stock solution. For the antiparasitic assays, the samples were tested in eight serial 2-fold dilutions (concentration range: 0.20–25 or 0.10–12 µg/mL on Leishmania and Trypanosoma, respectively). Suramine sodium and pentamidine isethionate salts (Sigma-Aldrich, St.-Louis, MO, USA) were used as a positive control with 3-fold dilutions (0.0046–10 µg/mL) from a stock solution of 2 mg/mL as well as amphotericin B. A maximum of 0.5% DMSO was previously verified to be non-toxic in all the biological assays. The IC50 values were determined using Microsoft Excel and GraphPad Prism 7.0 software (GraphPad, San Diego, CA, USA), based on a nonlinear regression. The selectivity index was calculated in comparison to the WI38 cytotoxicity to assess the therapeutic properties as antiparasitic or anticancer hits.

Data set [3] is described as follows: Cytotoxicity / anticancer activity on J774 cells. The following applies: mouse, J774 cancerous macrophage-like murine cells, mean ± SD from at least six values. The data set is classed as cell-based. As for the experimental part: as §1
For data set [4], the system named is Leishmania mexicana mexicana promastigotes. Put plainly: Antileishmanial activity in vitro. It counts as cell-based. The following applies: for IC50: Leishmania mexicana. As for the experimental part:
as §1

Data set [5] in a line: Cytotoxicity on WI38 cells. The data set is classed as cell-based. The following applies: human, WI38 normal human fibroblasts, mean ± SD from at least six values. The procedure: as §1
The subject of data set [6] is all tested cells. Put plainly: Summary over cytotoxicity and antiprotozoal assays. The data set is classed as cell-based. Particulars: read-out: IC50 on all tested cells except Trypanosoma. As for the experimental part: as §1, with “Suramine sodium and pentamidine isethionate salts (Sigma-Aldrich, St.-Louis, MO, USA) were used as a positive control with 3-fold dilutions (0.0046–10 µg/mL) from a stock solution of 2 mg/mL as well as amphotericin B. A maximum of 0.5% DMSO was previously verified to be non-toxic in all the biological assays.” left out

On the set-up of data set [7]: method as in earlier work. Particulars: cited from earlier work.
The subject of data set [8] is Trypanosoma brucei brucei. Also on record: method as in PMID 22473703. Particulars: cited from earlier work.
In data set [9] the test system is T. cruzi trypomastigotes. More on the design: method as in PMID 22414103. The following applies: at 100 µg/mL; cited from earlier work.
In data set [10] the test system is cruzain. More on the design: method as in PMID 22414103. Particulars: cited from earlier work.
The mark [11] stands for this setting: Trypanosoma brucei, Tbb bloodstream forms, strain 427, read-out: Antiparasitic activity IC50 ± SD Tbb.
The mark [12] stands for this setting: Trypanosoma brucei, Tbb bloodstream forms, strain 427, read-out: Antiparasitic activity IC50 ± SD Tbb (µM for pure compound).
Where [13] appears, read: read-out: Cytotoxicity IC50 ± SD J774.
Setting [14] is: read-out: Cytotoxicity IC50 ± SD J774 (µM for pure compound).
[15] abbreviates: Lmm promastigotes, read-out: Antiparasitic activity IC50 ± SD Lmm.
The mark [16] stands for this setting: Lmm promastigotes, read-out: Antiparasitic activity IC50 ± SD Lmm (µM for pure compound).
[17] abbreviates: read-out: Cytotoxicity IC50 ± SD WI38.
The mark [18] stands for this setting: read-out: Cytotoxicity IC50 ± SD WI38 (µM for pure compound).

The structures appear in SMILES notation. In brackets after ≈: the same amount, converted by molar mass. Where two headings read alike, the source gives them in different places.

On to `C=CC(C#CC#CC(O)CCCCCCCCC)OC(C)=O` (centres unmarked) [8-hydroxyheptadeca-1-ene-4,6-diyn-3-yl ethanoate], for which, in data set [1], the IC50 is 100 to 2500 nM and the “SI compared on L6 rat skeletal myoblasts” value is over 10.
With `C=CC(C#CC#CC(O)CCCCCCCCCCOC(C)=O)OC(C)=O` (centres unmarked) [16-acetoxy-11-hydroxyoctadeca-17-ene-12,14-diynyl ethanoate], in data set [1], the IC50 is 100 to 2500 nM and the “SI compared on L6 rat skeletal myoblasts” value is given as over 10.
`C=C[C@@H]1C#CC#CC/C=C\CCCCCCCC(=O)O1` [Compound 33, (Z)-17(R)-vinyloxacycloheptadeca-10-en-13,15-diyn-2-one]: the “Antiparasitic activity IC50 ± SD Tbb” value in [2] (Tbb bloodstream forms, strain 427) is recorded as 0.59 ± 0.08 µg/mL. The IC50 came to 2.17 µM in data set [2] (Tbb bloodstream forms, strain 427, read-out: Antiparasitic activity IC50 ± SD Tbb (µM for pure compound)); 0.6 µg/mL in data set [2] (setting [11]); 2.2 µM in data set [2] (setting [12]); 4.84 ± 0.1 µg/mL in data set [3] (setting [13]); 17.9 µM in [3] (setting [14]); 3.43 ± 0.02 µg/mL in [4] (setting [15]). Further, the 50% inhibitory concentration (IC50) in data set [4] (setting [16]) is 12.7 µM; in [5] (setting [17]), 5.2 ± 0.24 µg/mL; in data set [5] (setting [18]) it was 19.2 µM; in data set [6] it was 12500 to 19500 nM. In addition, the “Selectivity Index IC50 WI38/IC50 Parasite, Tbb” value in data set [2] (compared to WI38 cytotoxicity) is 8.9. Moreover, the “Selectivity Index IC50 WI38/IC50 Parasite, Lmm” value in [4] (compared to WI38 cytotoxicity) came out at 1.5.
Take `C=C[C@H](O)C#CC#CC/C=C\CCCCCCC` [Falcarinol]: in data set [7], the “reported log P” value is listed as 5.50. Moreover, the “SI compared to HeLa cytotoxicity” value in [8] (T. b. brucei compared to HeLa) is recorded as 858. Also, in data set [8], the IC50 was 40 nM and the “IC50 on Trypanosoma brucei brucei” value is 0.01 µg/mL (≈ 0.0409 µM).
On to `C[C@@H]1[C@H](O)[C@@H](C)/C=C/C=C/C=C/C=C/C=C/C=C/C=C/[C@H](O[C@@H]2O[C@H](C)[C@@H](O)[C@H](N)[C@@H]2O)C[C@@H]2O[C@](O)(C[C@@H](O)C[C@@H](O)[C@H](O)CC[C@@H](O)C[C@@H](O)CC(=O)O[C@H]1C)C[C@H](O)[C@H]2C(=O)O` [amphotericin B, reference compound], for which, in data set [4] (read-out: Antiparasitic activity IC50 ± SD Lmm (µM for pure compound)), the IC50 was 0.09 ± 0.06 µM.
With `CC[C@@]1(O)C(=O)OCc2c1cc1n(c2=O)Cc2cc3ccccc3nc2-1` [camptothecin, reference compound], the IC50 is 0.007 ± 0.005 µg/mL in data set [3] (setting [13]), 0.021 µM in [3] (setting [14]), 0.036 ± 0.022 µg/mL in data set [5] (setting [17]) and 0.103 µM in data set [5] (setting [18]).
Consider `C=C1/C=C/[C@H](C(C)C)CC/C(C)=C/CC1` [germacrene D, Germacrene D], for which the “growth inhibition of T. cruzi trypomastigotes” value in [9] was 61%. The IC50 cruzain in data set [10] is recorded as 22.1 µg/mL (≈ 108 µM).
In the case of `N=C(N)c1ccc(OCCCCCOc2ccc(C(=N)N)cc2)cc1` [pentamidine, reference compound], the IC50 in data set [4] (setting [15]) worked out at 0.057 ± 0.008 µg/mL; in data set [4] (setting [16]) it was 0.097 µM.
Regarding `Cc1ccc(C(=O)Nc2ccc(S(=O)(=O)O)c3cc(S(=O)(=O)O)cc(S(=O)(=O)O)c23)cc1NC(=O)c1cccc(NC(=O)Nc2cccc(C(=O)Nc3cc(C(=O)Nc4ccc(S(=O)(=O)O)c5cc(S(=O)(=O)O)cc(S(=O)(=O)O)c45)ccc3C)c2)c1` [suramine, reference compound], the IC50 in data set [2] (setting [11]) amounted to 0.031 ± 0.012 µg/mL; in data set [2] (setting [12]) it was 0.022 µM.

Source of the values: PMC6321439, “Structural Elucidation and Cytotoxicity of a New 17-Membered Ring Lactone from Algerian Eryngium campestre” (Molecules, 2018).
